Compound: CC1=CC(=CC=C1)NC2=NC(=CS2)C3=CC=NC=C3 + COc1cccc2cc(-c3nc([C@H]4CC[C@H](C(=O)O)CC4)n4ncnc(N)c34)[nH]c12 [OSI-027] (partner 0.5 µM)
Test: relative viability (nuclei count vs DMSO), 5 days (fraction); higher = more cells survive
Conditions: first compound 0.08 µM
In short: (§1)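 Relative viability is defined as nuclei in treated wells over nuclei in vehicle wells. Duplicate plates were run and medians reported. Lung cancer cell lines in 1536-well plates were dosed by pin tool one day after seeding, with one drug or with a fixed anchor-drug dose plus five library-drug doses (not always all listed) in √10 steps, and nuclei were counted after 5 days.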

| Cell Line | relative viability |
| --- | --- |
| NCI-H2228 | 0.375 |
| EMC-BAC-2 | 0.356 |
| NCI-H2087 | 0.499 |
| HCC-366 | 0.723 |
| NCI-H647 | 0.531 |
| LK-2 | 0.165 |
| NCI-H2126 | 0.608 |
| NCI-H2342 | 0.623 |
| NCI-H1793 | 0.238 |
| H3255 | 0.527 |
| COR-L23 | 0.587 |
| COR-L 105 | 0.562 |
| LOU-NH91 | 0.552 |
| ChaGo-K-1 | 0.43 |
| NCI-H358 | 0.674 |
| NCI-H3122 | 0.824 |
| HOP-62 | 0.714 |
| HCC-44 | 0.321 |
| SW 900 | 0.443 |
| LXF-289 | 0.794 |
| BEN | 0.304 |
| HARA | 0.33 |
| NCI-H1648 | 0.259 |
| NCI-H1563 | 0.723 |

Same assay, conditions: first compound 0.253 µM

| Cell Line | relative viability |
| --- | --- |
| NCI-H522 | 0.649 |
| NCI-H1623 | 0.359 |
| NCI-H838 | 0.357 |
| NCI-H1651 | 0.649 |
| NCI-H1734 | 0.554 |
| NCI-H2009 | 0.668 |
| LU99A | 0.271 |
| PC-14 | 0.833 |
| LCLC-103H | 0.448 |
| NCI-H596 | 0.775 |
| NCI-H2228 | 0.463 |
| EMC-BAC-2 | 0.383 |
| NCI-H2087 | 0.543 |
| HCC-366 | 0.744 |
| NCI-H647 | 0.471 |
| LK-2 | 0.181 |
| NCI-H2126 | 0.582 |

| Cell Line | relative viability |
| --- | --- |
| NCI-H2342 | 0.588 |
| NCI-H1793 | 0.25 |
| H3255 | 0.615 |
| COR-L23 | 0.66 |
| COR-L 105 | 0.62 |
| LOU-NH91 | 0.642 |
| ChaGo-K-1 | 0.459 |
| NCI-H358 | 0.821 |
| NCI-H3122 | 1.03 |
| HOP-62 | 0.774 |
| HCC-44 | 0.374 |
| SW 900 | 0.539 |
| LXF-289 | 0.786 |
| BEN | 0.281 |
| HARA | 0.496 |
| NCI-H1648 | 0.277 |
| NCI-H1563 | 0.775 |

Same assay, conditions: first compound 0.8 µM

| Cell Line | relative viability |
| --- | --- |
| NCI-H522 | 0.737 |
| NCI-H1623 | 0.391 |
| NCI-H838 | 0.37 |
| NCI-H1651 | 0.77 |
| NCI-H1734 | 0.654 |
| NCI-H2009 | 0.676 |
| LU99A | 0.296 |
| PC-14 | 0.795 |
| LCLC-103H | 0.422 |
| NCI-H596 | 0.777 |
| NCI-H2228 | 0.517 |
| EMC-BAC-2 | 0.385 |
| NCI-H2087 | 0.554 |
| HCC-366 | 0.959 |
| NCI-H647 | 0.659 |
| LK-2 | 0.237 |
| NCI-H2126 | 0.674 |

| Cell Line | relative viability |
| --- | --- |
| NCI-H2342 | 0.65 |
| NCI-H1793 | 0.315 |
| H3255 | 0.726 |
| COR-L23 | 0.555 |
| COR-L 105 | 0.561 |
| LOU-NH91 | 0.651 |
| ChaGo-K-1 | 0.588 |
| NCI-H358 | 0.715 |
| NCI-H3122 | 1.12 |
| HOP-62 | 0.849 |
| HCC-44 | 0.558 |
| SW 900 | 0.549 |
| LXF-289 | 0.753 |
| BEN | 0.295 |
| HARA | 0.328 |
| NCI-H1648 | 0.276 |
| NCI-H1563 | 0.842 |

Same assay, conditions: first compound 2.53 µM

| Cell Line | relative viability |
| --- | --- |
| NCI-H522 | 0.735 |
| NCI-H1623 | 0.405 |
| NCI-H838 | 0.386 |
| NCI-H1651 | 0.75 |
| NCI-H1734 | 0.7 |
| NCI-H2009 | 0.625 |
| LU99A | 0.284 |
| PC-14 | 0.826 |
| LCLC-103H | 0.462 |
| NCI-H596 | 0.64 |
| NCI-H2228 | 0.472 |
| EMC-BAC-2 | 0.375 |
| NCI-H2087 | 0.673 |
| HCC-366 | 0.833 |
| NCI-H647 | 0.585 |
| LK-2 | 0.185 |
| NCI-H2126 | 0.631 |

| Cell Line | relative viability |
| --- | --- |
| NCI-H2342 | 0.5 |
| NCI-H1793 | 0.249 |
| H3255 | 0.494 |
| COR-L23 | 0.64 |
| COR-L 105 | 0.597 |
| LOU-NH91 | 0.648 |
| ChaGo-K-1 | 0.394 |
| NCI-H358 | 0.82 |
| NCI-H3122 | 1.09 |
| HOP-62 | 0.786 |
| HCC-44 | 0.432 |
| SW 900 | 0.356 |
| LXF-289 | 0.729 |
| BEN | 0.304 |
| HARA | 0.48 |
| NCI-H1648 | 0.258 |
| NCI-H1563 | 0.779 |

Same assay, conditions: first compound 8 µM

| Cell Line | relative viability |
| --- | --- |
| NCI-H522 | 0.775 |
| NCI-H1623 | 0.384 |
| NCI-H838 | 0.348 |
| NCI-H1651 | 0.737 |
| NCI-H1734 | 0.618 |
| NCI-H2009 | 0.586 |
| LU99A | 0.288 |
| PC-14 | 0.702 |
| LCLC-103H | 0.342 |
| NCI-H596 | 0.609 |
| NCI-H2228 | 0.398 |
| EMC-BAC-2 | 0.378 |
| NCI-H2087 | 0.639 |
| HCC-366 | 0.461 |
| NCI-H647 | 0.644 |
| LK-2 | 0.214 |
| NCI-H2126 | 0.651 |

| Cell Line | relative viability |
| --- | --- |
| NCI-H2342 | 0.607 |
| NCI-H1793 | 0.217 |
| H3255 | 0.701 |
| COR-L23 | 0.503 |
| COR-L 105 | 0.581 |
| LOU-NH91 | 0.711 |
| ChaGo-K-1 | 0.485 |
| NCI-H358 | 0.728 |
| NCI-H3122 | 0.969 |
| HOP-62 | 0.729 |
| HCC-44 | 0.348 |
| SW 900 | 0.355 |
| LXF-289 | 0.838 |
| BEN | 0.322 |
| HARA | 0.473 |
| NCI-H1648 | 0.255 |
| NCI-H1563 | 0.697 |

Compound: CC1=CC(=CC=C1)NC2=NC(=CS2)C3=CC=NC=C3 + N=C(N)NC(=N)NCCc1ccccc1 [Phenformin] (partner 250 µM)
Test: as above
Conditions: first compound 0.08 µM
In short: as §1

| Cell Line | relative viability |
| --- | --- |
| NCI-H522 | 0.682 |
| NCI-H1623 | 0.577 |
| NCI-H838 | 0.466 |
| NCI-H1651 | 0.346 |

Reference: the supplement of paper PMC10307832
